Data on ten molecules can be found in patent US20220152031A1, “PYRIDAZINONES AND METHODS OF USE THEREOF” (Goldfinch Bio, Inc., priority 2019, published 2022).

Test [1] deals with T1, TRPC5 (Homo sapiens, UniProt Q9UL62).
T1 construct: expressed in transfected cells
T1 sequence (Q9UL62 1-973): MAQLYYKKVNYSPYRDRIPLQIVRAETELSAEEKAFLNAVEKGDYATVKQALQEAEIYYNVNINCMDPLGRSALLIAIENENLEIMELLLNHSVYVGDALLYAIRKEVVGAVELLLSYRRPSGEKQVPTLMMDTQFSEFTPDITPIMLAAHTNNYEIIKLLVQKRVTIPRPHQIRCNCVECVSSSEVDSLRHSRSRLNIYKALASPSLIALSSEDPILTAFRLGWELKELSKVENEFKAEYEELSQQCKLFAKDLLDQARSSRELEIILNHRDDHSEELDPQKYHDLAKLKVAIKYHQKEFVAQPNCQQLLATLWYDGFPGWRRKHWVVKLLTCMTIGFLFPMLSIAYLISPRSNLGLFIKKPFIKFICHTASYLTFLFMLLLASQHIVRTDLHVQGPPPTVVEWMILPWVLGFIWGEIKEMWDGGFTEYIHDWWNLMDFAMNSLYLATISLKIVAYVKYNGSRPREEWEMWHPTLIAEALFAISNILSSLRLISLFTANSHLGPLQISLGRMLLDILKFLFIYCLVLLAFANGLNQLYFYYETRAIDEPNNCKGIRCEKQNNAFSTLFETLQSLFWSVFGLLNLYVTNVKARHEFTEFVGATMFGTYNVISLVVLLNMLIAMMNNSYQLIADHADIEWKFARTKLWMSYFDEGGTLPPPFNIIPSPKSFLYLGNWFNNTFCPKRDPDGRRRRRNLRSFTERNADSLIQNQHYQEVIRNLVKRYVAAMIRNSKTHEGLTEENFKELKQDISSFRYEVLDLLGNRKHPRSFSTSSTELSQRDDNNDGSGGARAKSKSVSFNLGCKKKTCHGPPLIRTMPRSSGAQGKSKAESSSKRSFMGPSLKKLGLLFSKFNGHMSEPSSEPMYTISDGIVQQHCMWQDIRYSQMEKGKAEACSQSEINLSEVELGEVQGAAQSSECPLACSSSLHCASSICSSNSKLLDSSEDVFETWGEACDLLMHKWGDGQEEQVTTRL
Briefly: TRPC5 activity assay (FLIPR calcium fluorescence, HEK-TREx hTRPC5 cells). It is filed as cell-based. How it is done:
ICLN-1633 cells (HEK-TREx hTRPC5) expressing TRPC5 were generated as follows. Commercially available HekTrex-293 cells were seeded at 0.7×10^6 cells/well in a 1×6-well plate 24 hrs prior to transfection using 2 mL cell growth media containing no antibiotics (lx DMEM/high glucose (Hyclone #SH30022.02); 10% fetal bovine serum (Sigma) 2 mM sodium pyruvate, 10 mM HEPES). […] On day 2, 2 μg of plasmid DNA plus 6 μl of Xtreme-GENE HP reagent in Optimem (200 μl total volume) was prepared and incubated for 15 min at room temperature. This plasmid solution was then gently overlayed dropwise onto each well and the plate was gently swirled to mix complex with the media for approximately 30 seconds. Transfected cells were incubated at 37° C. in a 10% CO2 incubator for 24 hrs. The transfected cells were harvested and transferred into 2×150 mm dishes containing cell growth media with no antibiotics at 37° C.
The next day selection was initiated to generate a stable pool by adding cell growth media containing 150 μg/mL Hygromycin and 5 μg/mL Blasticidin and cells were allowed to grow. Media with the selection agent was changed every 1-2 days as needed to remove dead cells. After 7 days, the hygromycin concentration was reduced to 75 μg/mL and cells growth was allowed to continue.
Single clones were selected as follows. The stable pool was diluted to 10 cells/mL and seeded (100 μl/well) into 24×96 well plates (˜1 cell/well) and allowed to grow for 7 days in cell growth media. Fresh media (100 μl) was added and the cells allowed to grow for another 1-2 weeks and then stored frozen or used immediately.
10-point dose response curves were generated using the Echo-550 acoustic dispenser. Compound source plates were made by serially diluting compound stocks to create 10 mM, 1 mM, and 0.1 mM solutions in DMSO into Echo certified LDV plates. The Echo then serially spotted 100% DMSO stock solutions into source dose response plates to generate a 4-fold dilution scheme. 100% DMSO was added to the spotted dose response plates to bring the final volume to 5 μl. 300 nl of the dose response stock plate was then spotted into pre-incubation and stimulation assay plates. 50 μl of pre-incubation buffer and 100 μl of stimulation buffer was then added to the plates resulting in a final assay test concentration range of 30 μM to 0.0001 μM with a final DMSO concentration of 0.3%.
Human ICLN-1633 cells expressing were plated onto 384 well, black PDL-coated microplates and maintained in TRPC5 growth media the day prior to use for experiments. TRPC5 expression was induced by the application of 1 μg/mL tetracycline at the time of plating. […] Cells are incubated at room temperature, protected from light, for 60-90 minutes. After the incubation period, the dye is removed and replaced with 10 μl of EBSS. Cell, pre-incubation and stimulation plates are loaded onto the FLIPR-II and the assay is initiated. The FLIPR measures a 10 second baseline and then adds 10 μl of 2× compounds (or controls). Changes in fluorescence are monitored for an additional 5 minutes. After the 5 minute pre-incubation, 20 μl of 2× Riluzole (with 1× compound or controls) is added to the cell plate. The final Riluzole stimulation concentration in the assay is 30 μM. After the Riluzole addition, changes in fluorescence are monitored for an additional 5 minutes.
Compound modulation of TRPC5 calcium response was determined as follows. After the Englerin A, fluorescence was monitored for a 5-minute period. The maximum relative fluorescence response (minus the control response of 1 μM of an internal control compound known to maximally block TRPC5 calcium response, the “REF INHIB” in the formula below) was captured and exported from the FLIPR.
Compound effect is calculated as % inhibition using the following formula: […]
wherein “RFU” is the relative fluorescent units.

Test [2] concerns the target T1, TRPC5. As to the kind of experiment: Automated patch clamp assay, HEK293 cells overexpressing TRPC5, current block after rosiglitazone stimulation. Format: cell-based. The following applies: whole cell automated patch. A general note: In patch-clamp work, channel activity is measured electrically.
[3] abbreviates: Table 7, HEK-TREx hTRPC5, read-out: TRPC5-FLIPR IC50.
[4] abbreviates: Table 6, HEK-TREx hTRPC5, read-out: hTRPC5-FLIPR IC50.

Regarding `CN1CCN(Cc2nn(Cc3ccccc3C(F)F)c3c2CN(c2cn[nH]c(=O)c2Cl)CC3)CC1` [OU, 4-Chloro-5-(1-[[2-(difluoromethyl)phenyl]methyl]-3-[(4-methylpiperazin-1-yl)methyl]-1H,4H,5H,6H,7H-pyrazolo[4,3-c]pyridin-5-yl)-2,3-dihydropyridazin-3-one], the IC50 in test [1] (setting [3]) lay within 0.01 to 1000 nM.
As for `CN1CCN(C(=O)c2nn(Cc3ccccc3C(F)F)c3c2CN(c2cn[nH]c(=O)c2Cl)CC3)CC1` [OM], the IC50 in test [1] (setting [3]) was 0.01 to 1000 nM.
In the case of `CCc1ncccc1N(CC)C1CCN(c2cn[nH]c(=O)c2Cl)CC1` [LW, 4-chloro-5-[4-[ethyl(2-ethylpyridin-3-yl)amino]piperidin-1-yl]-2,3-dihydropyridazin-3-one], in test [1] (setting [4]), the IC50 was in the range of 0.01 to 1000 nM.
`NC(=O)c1nn(Cc2ccccc2C(F)(F)F)c2c1CN(c1cn[nH]c(=O)c1Cl)CC2` [OP, 5-(5-Chloro-6-oxo-1,6-dihydropyridazin-4-yl)-1-[[2-(trifluoromethyl)phenyl]methyl]-1H,4H,5H,6H,7H-pyrazolo[4,3-c]pyridine-3-carboxamide]: in test [1] (setting [3]), the IC50 was in the range of 0.01 to 1000 nM.
As for `CCc1ncccc1[C@H](C)N1CCN(c2cn[nH]c(=O)c2Cl)CC1` [LY, 4-chloro-5-[4-[(1S)-1-(2-ethylpyridin-3-yl)ethyl]piperazin-1-yl]-2,3-dihydropyridazin-3-one], the IC50 in test [1] (setting [4]) is 0.01 to 1000 nM.
For `CN(C)C(=O)c1nc2c(n1Cc1ccccc1C(F)(F)F)CCN(c1cn[nH]c(=O)c1Cl)C2` [PW], in test [1] (setting [3]), the IC50 fell in the range of 0.01 to 1000 nM.
As to `CC(c1ccc(F)cc1C(F)(F)F)N1CCN(c2cn[nH]c(=O)c2Cl)CC1=O` (single isomer, unassigned) [MF], the IC50 in test [1] (setting [4]) was 0.01 to 1000 nM.
In the case of `O=C1CN(c2cn[nH]c(=O)c2Cl)CCN1Cc1ccccc1C(F)(F)F` [AO], the IC50 in test [2] (80 mV, read-out: TRPC5_QP_XC50_80) lay within 0.01 to 1000 nM; in test [2] (100 mV, read-out: TRPC5_QP_X50_100), 0.01 to 1000 nM.
Regarding `C[C@@H]1Cc2c(nnn2[C@H](C)c2ccccc2C(F)(F)F)CN1c1cn[nH]c(=O)c1Cl` [MX, 4-chloro-5-[(6R)-6-methyl-1-[(1R)-1-[2-(trifluoromethyl)phenyl]ethyl]-1H,4H,5H,6H,7H-[1,2,3]triazolo[4,5-c]pyridin-5-yl]-2,3-dihydropyridazin-3-one], the IC50 in test [1] (setting [3]) is 0.01 to 1000 nM.
As to `CN(c1ncc2c(n1)CN(c1cn[nH]c(=O)c1Cl)C2)c1ccccc1C(F)(F)F` [QM], the IC50 in test [1] (setting [3]) lay in the range of 0.01 to 1000 nM.
